Measured values as given in US12377098B2, “Compositions and methods for the treatment of alopecia” (Follea International, priority 2023, dated 2025).

System: scalp SULT1A1 enzyme
Conditions: oral, 20 subjects

## O=C([O-])O.[Na+] [sodium bicarbonate]
Dosages exceeding 1,000 mg q.d.
  subjects in whom the scalp SULT1A1 enzyme was induced: 18%
Dosages less than 500 mg q.d.
  induction of the scalp SULT1A1 enzyme: did induce
